Where a SMILES comes first, the peptide text is derived from it. Bridges are numbered along the chain shown (N, C = ends). Where no end group is shown, it is not given here. The star is where a group is joined. IRDye800CW = CC1(C)C(/C=C/C2=C(Oc3ccc(S(=O)(=O)O)cc3)C(=C/C=C3/N(CCCCS(=O)(=O)O)c4ccc(S(=O)(=O)O)cc4C3(C)C)/CCC2)=[N+](CCCCCC(=O)*)c2ccc(S(=O)(=O)[O-])cc21; IRDye800 = IRDye800 fluorophore
Tests used:
[1] = optical characterization of NIR imaging agents (spectra, extinction coefficient, quantum yield, lifetime, relative brightness); format: physicochemical; conditions: for Emission maximum / Excitation maximum: 1 μM solution; for Extinction Coefficient × 10^4: at 785 nm; for Lifetime: frequency domain method, 785/830 (ex/em), ICG as standard
Protocol: Fluorescence quantum yield was determined by the comparative method of Williams et al. 1983 (Williams, Winfield and Miller. Analyst 109, 1067, 1983) using the quantum yield of ICG (in water) at 785/830 nm (24) as a standard. Lifetime measurements were obtained using the frequency domain-method using ICG as a standard. The IC50 of IRDye800-ABD was determined using a competitive binding assay modified from Dennis et al. 2002 (ibid). Briefly, MAXISORP fluorescent plates (Nunc, Rochester, N.Y.) were coated with mouse serum albumin (Sigma St Louis, Mo.) and incubated overnight at 4 degrees. Plates were washed three times with PBS+0.05% Tween20 (Sigma St. Louis, Mo.) to remove unbound albumin and were then blocked with TBS in casein (Pierce Rockford, Ill.) for 1 hour at 25 degrees. Equal volumes of unlabeled and labeled peptide were combined in centrifuge tubes for five different concentrations (0.05-10 nM) of unlabeled ABD peptide. The resulting peptide solution was then plated on the albumin coated plate, covered, and incubated for 1-2 hours at 37 degrees. The plate was washed with PBS+0.05% Tween20 three times to remove unbound peptide and fluorescence was measured using the ODYSSEY fluorescent plate reader (LI-COR, Lincoln, Nebr.). The average and standard deviation of four IC-50 values were determined.
In addition, Table 1 lists the relative brightness of each compound relative to ICG which was computed by taking the ratio of ((extinction coefficient)×(quantum yield))/((extinction coefficient of ICG)×(quantum yield of ICG)). […] Spectra for ICG and the IRDye800 conjugates were determined.

[2] = tested on: lymphatic vessels and nodes; assay: in vivo lymphatic imaging, dose escalation after intradermal injection at base of tail; design: species or system C57BL/6 mice
Protocol: (§1) Animal studies were conducted using shaved 6-7 week old female, C57BL/6 mice (Harlan, Charles River). […] Each mouse was injected intradermally at the base of the tail with 20 μL of 500 uM ICG or 20 μL of 100 μM dye for IRDye800, IRDy800-MSA and IRDye800-ABD in order to assess their performance in vivo. The injections were all made by the same investigator and the site was covered with sterile tape immediately prior to imaging to prevent camera saturation.
Animals were illuminated by a laser diode (100 mA, 80 mW for 785 nm, Sanyo; Richmond, Ind.) with the light source expanded to a circular area approximately 8 cm in diameter. Fluorescence emission was collected using an Electron Multiplying Charge Coupled Device (EMCCD) camera with a holographic notch-plus band-rejection filter (785-nm center wavelength for ICG) and a bandpass filter (830-nm center wavelength for ICG) placed prior to the lens to reject back-scattered and reflected excitation light. Fluorescence images were acquired with an integration time of 200 ms. For registration purposes, “white light” images were taken by removing the filters and acquiring images over 500 ms integration time. Up to 750 fluorescent images and 3 white light images were acquired immediately after injection on the left and right side of each animal. Statistical analyses of differences in fluorescent intensity were assessed by student t-test in which α=0.05. […] Images were processed using V++ software (Digital Optics; Auckland, New Zealand), and data was analyzed to determine in vivo fluorescent intensities in select regions of interest (ROI) using IMAGEJ (NIH, Bethesda, Md.) and MATLAB (The Mathworks). Statistical analysis was conducted using the student t-test with α=0.05.
In viva lymphatic imaging studies utilizing an escalating dose of IC was done.

[3] = cited from earlier work
[4] = taken up by the liver and secreted into the bile; cited from earlier work
[5] = tested on: lymphatics of arms and legs; assay: second human study: NIR fluorescence lymphatic imaging with intradermal ICG pre- and post-MLD, apparent lymph velocity and propulsion period; conditions: intradermal ICG up to 400 μg; vitals 2 h, follow-up calls 24 and 48 h
Text: Twelve normal volunteers and 10 subjects clinically diagnosed with Grade I or II unilateral LE participated and provided informed consent. […] The control subjects consisted of 2 males and 10 females, aged 22-59 years. The LE subjects were all female, aged 18-68 years with half experiencing lower extremity LE and the other half upper extremity LE. The injection sites were cleaned with a surgical scrub, followed by alcohol. Immediately after intradermal injection of imaging contrast agent using a 27 gauge needle, NIR fluorescence images were simultaneously acquired from both the LE and contralateral limbs of LE subjects. For control subjects, bilateral arms were imaged simultaneously in 6 subjects, and bilateral legs were imaged in the other 6 subjects. MLD was performed 30 to 60 minutes after the start of imaging followed by another 30 to 60 minutes of imaging. Vital signs were monitored for 2 hours after fluorescent agent administration and follow-up phone calls to assess subjects' condition were made 24 and 48 hours later. […]
The location and movement of lymphatic fluid containing ICG was imaged simultaneously in both limbs using two custom-built fluorescence imaging systems.

[6] = tested on: lymphatics of arms and legs; assay: first human study: NIR fluorescence lymphatic imaging with intradermal ICG, apparent lymph velocity and propulsion period in control and lymphedema subjects; conditions: intradermal ICG up to 400 μg; vitals 2 h, follow-up calls 24 and 48 h
inguinal lymph node = assay: lymphatic clearance study, fluorescence intensity in inguinal lymph node over time
Protocol: as §1
Animals were illuminated by a laser diode (100 mA, 80 mW for 785 nm, Sanyo; Richmond, Ind.) with the light source expanded to a circular area approximately 8 cm in diameter. Fluorescence emission was collected using an Electron Multiplying Charge Coupled Device (EMCCD) camera with a holographic notch-plus band-rejection filter (785-nm center wavelength for ICG) and a bandpass filter (830-nm center wavelength for ICG) placed prior to the lens to reject back-scattered and reflected excitation light. Fluorescence images were acquired with an integration time of 200 ms. […] Statistical analyses of differences in fluorescent intensity were assessed by student t-test in which α=0.05. […] Images were processed using V++ software (Digital Optics; Auckland, New Zealand), and data was analyzed to determine in vivo fluorescent intensities in select regions of interest (ROI) using IMAGEJ (NIH, Bethesda, Md.) and MATLAB (The Mathworks). […]

integrin α9β1 on LECs = biological target: T1, integrin α9β1 on LECs (Homo sapiens, UniProt P05556+Q13797); assay: fluorescence microscopy of LECs stimulated by VEGF-C; format: cell-based
T1 construct: LECS stimulated by VEGF-C to express α9β1 on the extracellular membrane; endogenous in cells; host or cells: lymphatic endothelial cells (LECs) incubated with VEGF-C
Text: FIG. 19: Fluorescence microscopy of LECS stimulated by VEGF-C to express α9β1 on the extracellular membrane as stained by (from left to right, top) by (i) DAPI, a nuclear stain, (ii) IRDye800-[…] (SEQ ID NO: 2), the imaging conjugate that targets α9β1, and (iii) a fluorescently labeled antibody that targets the β1 portion of α9β1.
This targeting approach can be used to detect the process of lymphangiogenesis in animal models in, for example, drug discovery programs focusing on cessation of tumor lymphangiogenesis (such is associated with cancer metastasis), or as a diagnostic to detect the lymphangiogenesis that occurs in metastatic cancer and other tymphovascular disorders. Lymphangiogenesis and the accompanying activation of LECS are known to be stimulated by vascular endothelial growth factor-C (VEGF-C) or hepatic growth factor (HGF). […] When VEGF-C is not present during incubation, α9β1 (over) expression and IRDye800-[…] […] The induced lymphangiogenesis is clearly visualized by the increase in fluorescence 24 hours through […] after the administration of imaging conjugate, IRDye800-[…] […] (SEQ ID NO: 2) was injected intravenously and 24 hours later, NIR fluorescence imaging was conducted to assess increased update associated with those tissues that were the site of Oxazolone application and increased lymphatic vessel densities that are indicative of lymphangiogenesis.

lymphangiogenesis (α9β1) [7] = assay: […] plug (with/without HGF) mouse model of lymphangiogenesis, NIR fluorescence imaging; format: in vivo; conditions: 24 hours after intradermal administration
Protocol: FIG. 20: NIR fluorescent image of an animal model of lymphangiogenesis (top) with a […] plug impregnated with LEC stimulating factor HGF on the right with a control […] plug without HGF on the left. The animal image (top) is taken 24 hours after administration of IRDye800-[…] (SEQ ID NO: 2) showing agent uptake into the […] plug containing LEC stimulating factor HGF and little or no uptake into the […] plug without HGF. When the […] plugs were removed from the animal and imaged, they were then imaged for the presence of IRDye800-[…] (SEQ ID NO: 2).
This targeting approach can be used to detect the process of lymphangiogenesis in animal models in, for example, drug discovery programs focusing on cessation of tumor lymphangiogenesis (such is associated with cancer metastasis), or as a diagnostic to detect the lymphangiogenesis that occurs in metastatic cancer and other tymphovascular disorders. […] The induced lymphangiogenesis is clearly visualized by the increase in fluorescence 24 hours through […] after the administration of imaging conjugate, IRDye800-[…] […] (SEQ ID NO: 2) was injected intravenously and 24 hours later, NIR fluorescence imaging was conducted to assess increased update associated with those tissues that were the site of Oxazolone application and increased lymphatic vessel densities that are indicative of lymphangiogenesis.

lymphangiogenesis (α9β1) [8] = assay: Oxazolone-induced skin inflammation mouse model, NIR fluorescence imaging; format: in vivo; conditions: 24 hours after intravenous injection, right inflamed vs left untreated side
Protocol: The NIR imaging was conducted with intradermal administration of ICG (as shown above in human studies) to image both the right and left side lymphatics. […] Increased vessel density, leakiness, and dilated vessels on the inflamed side as compared to the untreated side of the animal as evident from the lymphatic imaging as compared to the left, untreated side.
The right side of the animal which has greater lymphatic density as indicated by ICG imaging (as shown in FIG. 21) is also associated with increased IRDye800-[…] (SEQ ID NO: 2) fluorescence presumably owing to the stimulation of LECS in the process of lymphangiogenesis to produce α9β1 integrin.
This targeting approach can be used to detect the process of lymphangiogenesis in animal models in, for example, drug discovery programs focusing on cessation of tumor lymphangiogenesis (such is associated with cancer metastasis), or as a diagnostic to detect the lymphangiogenesis that occurs in metastatic cancer and other tymphovascular disorders. Lymphangiogenesis and the accompanying activation of LECS are known to be stimulated by vascular endothelial growth factor-C (VEGF-C) or hepatic growth factor (HGF). […] The induced lymphangiogenesis is clearly visualized by the increase in fluorescence 24 hours through […] after the administration of imaging conjugate, IRDye800-[…] […]

mouse serum albumin [9] = biological target: mouse serum albumin (Mus musculus, UniProt P07724); conditions: read-out: IC-50 of unconjugated ABD peptide for albumin; as reported by Dennis et al., 2002; cited from earlier work
mouse serum albumin [10] = biological target: T2, mouse serum albumin (mouse, UniProt P07724 25-608); assay: competitive binding assay on plates coated with mouse serum albumin; unlabeled ABD peptide at 0.05-10 nM mixed with labeled peptide, fluorescence read-out; mean and SD of four IC-50 values
T2 construct: Bought protein; also called MSA

T1 sequence (Q13797 30-1035): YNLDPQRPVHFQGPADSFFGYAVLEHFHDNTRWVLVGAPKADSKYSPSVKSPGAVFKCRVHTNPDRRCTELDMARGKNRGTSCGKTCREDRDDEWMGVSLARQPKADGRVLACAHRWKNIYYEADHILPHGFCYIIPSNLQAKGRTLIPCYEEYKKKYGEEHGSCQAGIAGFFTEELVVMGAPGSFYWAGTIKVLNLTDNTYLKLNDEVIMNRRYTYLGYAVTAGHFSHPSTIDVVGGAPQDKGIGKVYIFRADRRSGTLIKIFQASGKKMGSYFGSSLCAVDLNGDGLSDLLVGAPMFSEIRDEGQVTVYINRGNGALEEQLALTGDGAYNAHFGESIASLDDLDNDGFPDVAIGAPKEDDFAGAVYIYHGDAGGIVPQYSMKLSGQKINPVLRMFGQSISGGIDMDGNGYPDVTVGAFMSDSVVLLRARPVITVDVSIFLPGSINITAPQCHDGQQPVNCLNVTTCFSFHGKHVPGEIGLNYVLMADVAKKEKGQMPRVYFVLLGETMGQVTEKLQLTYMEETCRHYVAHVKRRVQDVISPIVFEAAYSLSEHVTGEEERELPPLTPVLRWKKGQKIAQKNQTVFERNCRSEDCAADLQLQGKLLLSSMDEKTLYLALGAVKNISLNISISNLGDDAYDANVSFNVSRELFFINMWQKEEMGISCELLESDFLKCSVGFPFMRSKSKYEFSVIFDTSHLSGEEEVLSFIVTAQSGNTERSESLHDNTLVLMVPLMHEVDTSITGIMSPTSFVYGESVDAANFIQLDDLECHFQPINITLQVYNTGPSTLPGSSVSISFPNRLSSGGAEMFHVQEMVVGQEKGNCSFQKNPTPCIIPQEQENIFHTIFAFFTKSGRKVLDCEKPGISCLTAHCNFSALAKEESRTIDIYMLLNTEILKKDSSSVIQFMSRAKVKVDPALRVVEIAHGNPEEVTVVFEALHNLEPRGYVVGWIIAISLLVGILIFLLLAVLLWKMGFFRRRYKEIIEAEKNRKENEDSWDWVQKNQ
T1 sequence (P05556 21-798): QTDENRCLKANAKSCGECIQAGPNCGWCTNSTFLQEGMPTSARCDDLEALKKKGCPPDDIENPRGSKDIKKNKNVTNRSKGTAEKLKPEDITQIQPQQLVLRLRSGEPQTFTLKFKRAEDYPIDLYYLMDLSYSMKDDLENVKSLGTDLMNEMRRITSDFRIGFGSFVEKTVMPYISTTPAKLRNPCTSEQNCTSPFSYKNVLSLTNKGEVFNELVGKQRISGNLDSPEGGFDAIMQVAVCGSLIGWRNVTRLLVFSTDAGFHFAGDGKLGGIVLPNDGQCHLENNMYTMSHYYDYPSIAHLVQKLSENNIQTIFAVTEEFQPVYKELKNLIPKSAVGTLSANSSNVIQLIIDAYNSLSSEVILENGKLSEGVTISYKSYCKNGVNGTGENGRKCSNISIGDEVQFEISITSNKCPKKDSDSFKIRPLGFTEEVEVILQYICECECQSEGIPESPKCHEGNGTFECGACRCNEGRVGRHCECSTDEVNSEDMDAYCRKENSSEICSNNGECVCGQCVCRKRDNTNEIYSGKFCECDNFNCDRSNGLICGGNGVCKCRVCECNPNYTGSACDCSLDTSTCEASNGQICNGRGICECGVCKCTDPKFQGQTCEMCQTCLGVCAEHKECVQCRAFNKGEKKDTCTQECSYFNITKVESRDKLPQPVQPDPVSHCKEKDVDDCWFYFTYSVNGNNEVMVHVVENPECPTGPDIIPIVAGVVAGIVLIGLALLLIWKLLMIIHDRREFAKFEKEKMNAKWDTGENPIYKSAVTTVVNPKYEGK
mouse serum albumin (Mus musculus, UniProt P07724), sequence (P07724 25-608): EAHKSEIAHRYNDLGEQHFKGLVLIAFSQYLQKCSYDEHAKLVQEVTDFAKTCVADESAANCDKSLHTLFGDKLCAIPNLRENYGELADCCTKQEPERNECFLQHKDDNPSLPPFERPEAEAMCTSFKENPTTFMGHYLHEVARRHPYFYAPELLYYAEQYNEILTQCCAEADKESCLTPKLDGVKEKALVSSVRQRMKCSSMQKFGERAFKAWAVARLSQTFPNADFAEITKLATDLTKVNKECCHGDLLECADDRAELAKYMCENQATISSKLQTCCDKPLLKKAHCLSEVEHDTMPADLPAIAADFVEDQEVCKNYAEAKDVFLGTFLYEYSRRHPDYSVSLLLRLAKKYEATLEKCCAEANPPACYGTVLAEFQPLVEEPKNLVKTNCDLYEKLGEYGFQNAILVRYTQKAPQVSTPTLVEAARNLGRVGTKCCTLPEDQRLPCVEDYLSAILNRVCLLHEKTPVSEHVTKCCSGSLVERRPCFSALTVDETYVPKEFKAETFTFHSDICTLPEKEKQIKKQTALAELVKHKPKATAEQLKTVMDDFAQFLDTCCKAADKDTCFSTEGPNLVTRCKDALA

Molecule: CC1(C)C(/C=C/C=C/C=C/C=C2\N(CCCCS(=O)(=O)O)c3ccc4ccccc4c3C2(C)C)=[N+](CCCCS(=O)(=O)[O-])c2ccc3ccccc3c21 [ICG, indocyanine green]
- Emission maximum [1]: 799
- Excitation maximum [1]: 785
- Extinction Coefficient × 10^4 [1]: 8.60 +/− 0.35
- Lifetime [1]: 0.59 +/− 0.049
- concentration sufficient to clearly depict lymphatic architecture in vivo ([2]; 20 μL intradermal at base of tail, mice): 500 µM
- appearance of lymphatic vasculature ([2]; ICG at 500 μM): brighter and more prominent
- appearance of lymphatic vessels and nodes ([2]; ICG at 20 and 100 uM): dim and difficult to discern
- Quantum Yield (ICG standard) ([3]; ICG in water at 785/830 nm, used as standard): 0.016
- maximal absorption ([3]; background statement): 780 nm
- normal biological half-time [4]: 2-4 min
- adverse events associated with the imaging agent [5]: No adverse events
- adverse events associated with the drug [6]: No adverse events

Molecule: CC[C@H](C)[C@H](NC(=O)[C@H](CC(C)C)NC(=O)[C@H](CCCNC(=N)N)NC(=O)CCCCCN1C(=CC=C2CCCC(C=CC3=[N+](CCCCS(=O)(=O)[O-])c4ccc(S(=O)(=O)O)cc4C3(C)C)=C2Oc2ccc(S(=O)(=O)O)cc2)C(C)(C)c2cc(S(=O)(=O)O)ccc21)C(=O)N[C@@H](CCC(=O)O)C(=O)N[C@@H](CC(=O)O)C(=O)N[C@H](C(=O)N[C@H]1CSSC[C@@H](C(=O)N[C@@H](CC(C)C)C(=O)N[C@@H](Cc2c[nH]c3ccccc23)C(=O)N[C@@H](CCC(=O)O)C(=O)N[C@@H](CC(=O)O)C(=O)N[C@@H](CC(=O)O)C(=O)O)NC(=O)CNC(=O)[C@H](Cc2c[nH]c3ccccc23)NC(=O)[C@H](CCCNC(=N)N)NC(=O)[C@@H]2CCCN2C(=O)[C@H](CC(C)C)NC1=O)[C@@H](C)CC [IRDye800-ABD] (IRDye800CW-RLIEDICLPRWGCLWEDD-OH; disulfide 7-13; N-terminus and C-terminus assumed)
- Emission maximum [1]: 803
- Excitation maximum [1]: 780
- Intensity relative to ICG ([1]; (extinction coefficient × quantum yield) ratio to ICG): 25.9
- Quantum Yield ([1]; at 785/830 (ex/em), comparative method with ICG as standard): 0.0647 +/− 0.0007
- Extinction Coefficient × 10^4 [1]: 54.836 +/− 0.25
- Lifetime [1]: 0.92 +/− 0.057
- lymphatic clearance from inguinal lymph node (inguinal lymph node; 0.5 to 50 min after injection): slowed clearance
- fluorescence intensity in inguinal node, initially (inguinal lymph node; initial time after intradermal injection): started out with a lower intensity

Molecule: IRDye800-GGGPLAEIDGIELTY: IRDye800 conjugated to tenascin C derived integrin α9β1 binding peptide GGGPLAEIDGIELTY (SEQ ID NO: 2)
- binding to LECs incubated in VEGF-C (integrin α9β1 on LECs; VEGF-C for 30 minutes, co-stain with antibody to β1): co-localized with the antibody to β1
- binding to LECs without VEGF-C (integrin α9β1 on LECs; VEGF-C not present during incubation): not seen
- fluorescence of control MATRIGEL plug with no HGF (lymphangiogenesis (α9β1) [7]): did not show appreciable fluorescence
- fluorescence of resected MATRIGEL plug with HGF (lymphangiogenesis (α9β1) [7]): showed fluorescence
- fluorescence in region of Oxazolone skin inflammation (lymphangiogenesis (α9β1) [8]): increased fluorescence

Molecule: RLIEDICLPRWGCLWEDD [ABD peptide]
- IC50 (mouse serum albumin [9]): 5 nM

B1: IRDye800-ABD (albumin binding domain peptide RLIEDICLPRWGCLWEDD conjugated to IRDye800CW) (peptide)
peptide: RLIEDICLPRWGCLWEDD
modifications: cysteine pairing not given here; also: IRDye800CW label attached via NHS ester, site not given here
notes: Made by adding a 1.75 times molar excess of IRDye800CW to the ABD peptide, then HPLC purified; also called IRDye800-ABD conjugate; ABD-IRDye800 conjugate
- IC50 (mouse serum albumin [10]): 1.19 nM
